# According to ChEMBL document CHEMBL1136944, “Serratezomines D and E, new Lycopodium alkaloids from Lycopodium serratum var. serratum” (Bioorg Med Chem Lett, 2009):
# pIC50: −log10 of the molar value. Activity calls are given as the source filed them. No cut-off for these calls is given here.
# What was measured:
# [1] = target: Acetylcholinesterase (Electrophorus electricus) (UniProt O42275); assay: (§1) Inhibition of Electrophorus electricus acetylcholinesterase by rapid colorimetric determination
# Acetylcholinesterase (Electrophorus electricus), sequence (O42275 24-633 limits assumed): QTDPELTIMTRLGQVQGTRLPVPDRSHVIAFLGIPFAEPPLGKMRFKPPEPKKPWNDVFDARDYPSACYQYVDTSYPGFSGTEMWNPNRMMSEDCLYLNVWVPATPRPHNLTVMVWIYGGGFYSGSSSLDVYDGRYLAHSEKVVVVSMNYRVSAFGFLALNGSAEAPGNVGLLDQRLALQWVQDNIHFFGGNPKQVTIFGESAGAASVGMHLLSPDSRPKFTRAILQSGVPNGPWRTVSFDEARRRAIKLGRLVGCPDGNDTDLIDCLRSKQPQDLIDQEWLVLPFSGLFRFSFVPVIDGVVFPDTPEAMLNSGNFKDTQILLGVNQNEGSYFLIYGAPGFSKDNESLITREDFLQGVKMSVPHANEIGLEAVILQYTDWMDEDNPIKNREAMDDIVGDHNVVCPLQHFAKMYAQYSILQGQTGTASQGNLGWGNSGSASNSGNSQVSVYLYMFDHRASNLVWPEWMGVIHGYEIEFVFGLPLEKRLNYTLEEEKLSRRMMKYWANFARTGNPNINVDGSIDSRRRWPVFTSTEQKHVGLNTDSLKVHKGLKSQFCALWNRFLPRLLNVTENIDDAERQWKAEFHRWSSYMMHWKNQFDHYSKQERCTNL
# Acetylcholinesterase = Acetylcholinesterase (Electrophorus electricus, UniProt O42275); assay: as §1
# Acetylcholinesterase, sequence (O42275 whole entry): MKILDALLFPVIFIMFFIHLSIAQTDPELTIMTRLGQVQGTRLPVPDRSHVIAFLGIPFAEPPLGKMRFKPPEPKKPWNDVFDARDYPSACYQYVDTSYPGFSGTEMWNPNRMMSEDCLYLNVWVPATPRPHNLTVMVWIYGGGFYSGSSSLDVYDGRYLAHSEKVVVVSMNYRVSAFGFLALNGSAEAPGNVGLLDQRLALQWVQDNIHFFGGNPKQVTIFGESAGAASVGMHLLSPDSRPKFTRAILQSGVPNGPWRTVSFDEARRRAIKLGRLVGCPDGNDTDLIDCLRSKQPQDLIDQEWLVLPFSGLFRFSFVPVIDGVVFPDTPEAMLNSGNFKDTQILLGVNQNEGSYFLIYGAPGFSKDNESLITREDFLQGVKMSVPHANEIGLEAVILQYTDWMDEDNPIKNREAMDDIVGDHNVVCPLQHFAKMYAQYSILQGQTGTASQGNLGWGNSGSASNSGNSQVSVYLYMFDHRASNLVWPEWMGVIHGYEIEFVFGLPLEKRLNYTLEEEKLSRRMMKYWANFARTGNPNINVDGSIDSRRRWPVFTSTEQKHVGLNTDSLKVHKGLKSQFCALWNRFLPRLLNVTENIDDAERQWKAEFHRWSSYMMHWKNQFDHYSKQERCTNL
SMILES,Activity [1],pIC50 (Acetylcholinesterase)
CC(=O)N1CCC[C@@H]2[C@@H](C[C@H]3CC[C@@H]4[C@H]5C[C@@H]6[C@@H](C[C@@H](C)C[C@@H]6N(C)C5)C[C@H]4N3)C[C@H](C)C[C@@H]21,inactive,
CC(=O)N1CCC[C@H]2[C@@H](C[C@@H]3CC[C@@H]4[C@@H]5C[C@@H]6[C@@H](C[C@@H](C)C[C@@H]6N(C)C5)C[C@H]4N3)C[C@H](C)C[C@H]21,inactive,
CC(=O)N1CCC[C@H]2[C@@H](C[C@H]3CC[C@]4(O)[C@@H]5C[C@@H]6[C@@H](C[C@@H](C)C[C@@H]6N(C)C5)C[C@H]4N3)C[C@H](C)C[C@H]21,inactive,
C[C@@H]1C[C@@H]2C[C@H]3N[C@H](C[C@H]4C[C@@H](C)C[C@@H]5[C@@H]4CCCN5C=O)CC[C@@H]3[C@H]3C[C@H]2[C@@H](C1)N(C)C3 [SERRATEZOMINE D],,3.22
